pKi: −log10 of the molar value.

The values that follow come from patent US20230399312A1, “SUBSTITUTED PYRIMIDINES AND METHODS OF USE” (THERAVANCE BIOPHARMA R&D IP, LLC, priority 2020, published 2023).

Assay [1] concerns the target T1, recombinant human ALK5 (TGF-βR1) protein (Homo sapiens, UniProt P36897).
T1 construct: purchased Life Technologies PR9075A
T1 sequence (P36897 34-503): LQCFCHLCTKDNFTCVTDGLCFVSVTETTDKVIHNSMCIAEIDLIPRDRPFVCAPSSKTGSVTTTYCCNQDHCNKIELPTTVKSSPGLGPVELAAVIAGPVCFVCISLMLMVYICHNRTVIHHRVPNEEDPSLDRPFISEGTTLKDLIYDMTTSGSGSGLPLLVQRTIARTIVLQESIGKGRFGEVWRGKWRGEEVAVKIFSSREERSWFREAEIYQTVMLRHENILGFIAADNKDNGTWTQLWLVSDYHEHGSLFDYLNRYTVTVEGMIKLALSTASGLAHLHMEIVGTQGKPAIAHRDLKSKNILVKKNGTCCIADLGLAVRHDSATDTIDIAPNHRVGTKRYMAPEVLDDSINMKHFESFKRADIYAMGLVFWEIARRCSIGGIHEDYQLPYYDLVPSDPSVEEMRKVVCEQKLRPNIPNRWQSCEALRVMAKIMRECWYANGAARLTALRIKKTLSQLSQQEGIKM
Briefly: Biochemical ALK5 (TGF-βR1) assay to measure pKi (LANCE Ultra ULight kinase assay). The conditions noted are these: apparent pKi, converted from pIC50 by Cheng-Prusoff. In a few lines: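 Enzyme was preincubated with compound for 60 min at room temperature, then ATP (added from a 125 μM 5× stock with 2 mM DTT) started a 60 min reaction at 37 °C. EDTA plus Eu-anti-phospho-Topo2α (Thr1342) antibody stopped it; TR-FRET pIC50 values were converted to pKi by Cheng-Prusoff.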
In general terms: TR-FRET usually uses a lanthanide donor and a delayed reading to cut background.

The subject of assay [2] is TGF-β-stimulated SMAD3 phosphorylation in BEAS-2B cells. Briefly: Cellular ALK5 potency assay, inhibition of TGF-β stimulated pSMAD3 formation in BEAS-2B cells. The note with it: Homo sapiens, pSMAD3, TGF-β 10 ng/mL, read-out: BEAS2B pIC50 (converted). The class given is cell-based. In a few lines:
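Read-out is AlphaLISA detection of phospho-SMAD3 in lysates of BEAS-2B human lung epithelial cells. Cells are exposed to compound for 1 hour, then to 10 ng/mL TGF-β (final) for 30 minutes. Values are pIC50 from concentration–response curves.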

Broadly, the pKi is the Ki on a negative log10 scale, so that one unit is a factor of ten. `Cc1cccc(-c2nccc(Nc3ccnc(Nc4cccc(C(=O)O[C@H]5CCNC5)c4)n3)n2)n1` [Compound 257, [(3S)-pyrrolidin-3-yl] 3-[[4-[[2-(6-methyl-2-pyridyl)pyrimidin-4-yl]amino]pyrimidin-2-yl]amino]benzoate]: the pKi in assay [1] is 8.50 to 9.40. The IC50 in assay [2] is 25.1 to 158 nM.
Taken in the same sequence, the figures for `Cc1cccc(-c2nccc(Nc3ccnc(Nc4ccc(NC(=O)N5CCNCC5)cc4)n3)n2)n1` [Compound 228, N-(4-((4-((2-(6-methylpyridin-2-yl)pyrimidin-4-yl)amino)pyrimidin-2-yl)amino)phenyl)piperazine-1-carboxamide] were 9.50 to 10.40 and 25.1 to 158 nM.
Consider `Cc1cccc(-c2nccc(Nc3ccnc(Nc4csc(C(=O)OC[C@H]5CC[C@H](N)CC5)c4)n3)n2)n1` [Compound 590, (4-aminocyclohexyl)methyl 4-[[4-[[2-(6-methyl-2-pyridyl)pyrimidin-4-yl]amino]pyrimidin-2-yl]amino]thiophene-2-carboxylate], for which the pKi in assay [1] was 9.50 to 10.40. The IC50 in assay [2] was 25.1 to 158 nM.
In the case of `Cc1cccc(-c2nccc(Nc3ccnc(Nc4nc(C(=O)NC5CNC5)cs4)n3)n2)n1` [Compound 44, N-(azetidin-3-yl)-2-[[4-[[2-(6-methyl-2-pyridyl)pyrimidin-4-yl]amino]pyrimidin-2-yl]amino]thiazole-4-carboxamide], the pKi in assay [1] is 9.50 to 10.40. The IC50 in assay [2] is 25.1 to 158 nM.
In the case of `Cc1cccc(-c2nccc(Nc3ccnc(Nc4ccc(C(=O)NC5CNC5)cc4)n3)n2)n1` [Compound 387, N-(azetidin-3-yl)-4-[[4-[[2-(6-methyl-2-pyridyl)pyrimidin-4-yl]amino]pyrimidin-2-yl]amino]benzamide], the pKi in assay [1] was 9.50 to 10.40. Also, the IC50 in assay [2] is no more than 20 nM.
On the same counts, the results for `COC(=O)CC1CNCCN1c1ccc(Nc2nccc(Nc3ccnc(-c4cccc(C)n4)n3)n2)cc1` (stereo not drawn) [Compound 462, methyl 2-[1-[4-[[4-[[2-(6-methyl-2-pyridyl)pyrimidin-4-yl]amino]pyrimidin-2-yl]amino]phenyl]piperazin-2-yl]acetate] are 9.50 to 10.40 and 25.1 to 158 nM.
Regarding `Cc1cccc(-c2nccc(Nc3ccnc(Nc4csc(C(=O)OCCNC5CNC5)c4)n3)n2)n1` [Compound 560, 2-(azetidin-3-ylamino)ethyl 4-[[4-[[2-(6-methyl-2-pyridyl)pyrimidin-4-yl]amino]pyrimidin-2-yl]amino]thiophene-2-carboxylate], the negative-log Ki (pKi) in assay [1] is 9.50 to 10.40. Further, the IC50 in assay [2] was 25.1 to 158 nM.
With `Cc1cccc(-c2nccc(Nc3ccnc(Nc4ccc(NS(=O)(=O)C5CCNC5)cc4)n3)n2)n1` (stereo not drawn) [Compound 413, N-[4-[[4-[[2-(6-methyl-2-pyridyl)pyrimidin-4-yl]amino]pyrimidin-2-yl]amino]phenyl]pyrrolidine-3-sulfonamide], the negative-log Ki (pKi) in assay [1] is 8.50 to 9.40. Further, in assay [2], the IC50 is 200 to 1260 nM.
As to `Cc1cccc(-c2nccc(Nc3ccnc(Nc4ncc(C5=CCNCC5)s4)n3)n2)n1` [Compound 623, N4-[2-(6-methyl-2-pyridyl)pyrimidin-4-yl]-N2-[5-(1,2,3,6-tetrahydropyridin-4-yl)thiazol-2-yl]pyrimidine-2,4-diamine], in assay [1], the negative logarithm of the Ki (pKi) is 8.50 to 9.40. In addition, the IC50 in assay [2] is 25.1 to 158 nM.
On the same counts, the results for `COc1ncc(Nc2nccc(Nc3ccnc(-c4cccc(C)n4)n3)n2)cc1NS(C)(=O)=O` [Compound 20, N-[2-methoxy-5-[[4-[[2-(6-methyl-2-pyridyl)pyrimidin-4-yl]amino]pyrimidin-2-yl]amino]-3-pyridyl]methanesulfonamide] are 8.50 to 9.40 and no more than 20 nM.
As for `CN(C)C1CCN(c2ccc(Nc3nccc(Nc4ccnc(-c5cc(Cl)c(F)cc5F)n4)n3)cc2)CC1` [Compound 246, N4-[2-(5-chloro-2,4-difluoro-phenyl)pyrimidin-4-yl]-N2-[4-[4-(dimethylamino)-1-piperidyl]phenyl]pyrimidine-2,4-diamine], the pKi in assay [1] was 9.50 to 10.40. The IC50 in assay [2] is 25.1 to 158 nM.
`Cc1cccc(-c2nccc(Nc3ccnc(Nc4cccc(NC(=O)C5CCN(C6CCN(C)CC6)CC5)c4)n3)n2)n1` [Compound 282, 1-(1-methyl-4-piperidyl)-N-[3-[[4-[[2-(6-methyl-2-pyridyl)pyrimidin-4-yl]amino]pyrimidin-2-yl]amino]phenyl]piperidine-4-carboxamide]: the pKi in assay [1] was 9.50 to 10.40. Also, the IC50 in assay [2] was 25.1 to 158 nM.
Take `CC[C@H](C)OC(=O)CC1CNCCN1c1ccc(Nc2nccc(Nc3ccnc(-c4cccc(C)n4)n3)n2)cc1` (stereo partly drawn) [Compound 449, [(1S)-1-methylpropyl] 2-[1-[4-[[4-[[2-(6-methyl-2-pyridyl)pyrimidin-4-yl]amino]pyrimidin-2-yl]amino]phenyl]piperazin-2-yl]acetate]: the pKi in assay [1] is 9.50 to 10.40. In assay [2], the IC50 is 25.1 to 158 nM.
Regarding `Cc1cccc(-c2nccc(Nc3ccnc(Nc4ccc(Cl)c(CN5CCN(C)CC5)c4)n3)n2)n1` [Compound 238, N2-[4-chloro-3-[(4-methylpiperazin-1-yl)methyl]phenyl]-N4-[2-(6-methyl-2-pyridyl)pyrimidin-4-yl]pyrimidine-2,4-diamine], the pKi in assay [1] is 9.50 to 10.40. Besides, the IC50 in assay [2] was 25.1 to 158 nM.
Consider `Cc1cccc(-c2nccc(Nc3ccnc(Nc4cc(C(=O)O[C@@H]5CCN(C)C5)cs4)n3)n2)n1` [Compound 522, [(3R)-1-methylpyrrolidin-3-yl] 5-[[4-[[2-(6-methyl-2-pyridyl)pyrimidin-4-yl]amino]pyrimidin-2-yl]amino]thiophene-3-carboxylate], for which the negative logarithm of the Ki (pKi) in assay [1] was 9.50 to 10.40. Also, the IC50 in assay [2] is 25.1 to 158 nM.
Taken in the same sequence, the figures for `Cc1cccc(-c2nccc(Nc3ccnc(Nc4cccc(C(=O)OCC5CNC5)c4)n3)n2)n1` [Compound 178, azetidin-3-ylmethyl 3-((4-((2-(6-methylpyridin-2-yl)pyrimidin-4-yl)amino)pyrimidin-2-yl)amino)benzoate] were 8.50 to 9.40 and 25.1 to 158 nM.
For `Cc1cccc(-c2nccc(Nc3ccnc(Nc4cncc(C(=O)OCC5CCNCC5)c4)n3)n2)n1` [Compound 606, 4-piperidylmethyl 5-[[4-[[2-(6-methyl-2-pyridyl)pyrimidin-4-yl]amino]pyrimidin-2-yl]amino]pyridine-3-carboxylate], the pKi in assay [1] was 8.50 to 9.40. Moreover, the IC50 in assay [2] is 25.1 to 158 nM.
Turning to `Cc1cccc(-c2nc(C)cc(Nc3ccnc(Nc4ccc(N5CCN(C)CC5)cc4)n3)n2)n1` [Compound 222, N4-[6-methyl-2-(6-methyl-2-pyridyl)pyrimidin-4-yl]-N2-[4-(4-methylpiperazin-1-yl)phenyl]pyrimidine-2,4-diamine], in assay [1], the pKi is 9.50 to 10.40. For the same molecule, in assay [2], the IC50 is 25.1 to 158 nM.
Regarding `Cc1cccc(-c2nccc(Nc3ccnc(Nc4ccc(NCCN5C[C@@H](C)N[C@@H](C)C5)cc4)n3)n2)n1` [Compound 263, N4-[2-(6-methyl-2-pyridyl)pyrimidin-4-yl]-N2-[4-[2-[rac-(3S,5R)-3,5-dimethylpiperazin-1-yl]ethylamino]phenyl] pyrimidine-2,4-diamine], in assay [1], the negative-log Ki (pKi) is 9.50 to 10.40. Also, the IC50 in assay [2] is 25.1 to 158 nM.
Taken in the same sequence, the figures for `Cc1cccc(-c2nccc(Nc3ccnc(Nc4ncc(C5=CCNC5)s4)n3)n2)n1` [Compound 609, N2-[5-(2,5-dihydro-1H-pyrrol-3-yl)thiazol-2-yl]-N4-[2-(6-methyl-2-pyridyl)pyrimidin-4-yl]pyrimidine-2,4-diamine] were 8.50 to 9.40 and 25.1 to 158 nM.
As to `COc1cc(Nc2nccc(Nc3ccnc(-c4cccc(C)n4)n3)n2)ccc1NS(C)(=O)=O` [Compound 18, N-[2-methoxy-4-[[4-[[2-(6-methyl-2-pyridyl)pyrimidin-4-yl]amino]pyrimidin-2-yl]amino]phenyl] methanesulfonamide], the negative-log Ki (pKi) in assay [1] is 8.50 to 9.40. Moreover, the IC50 in assay [2] was 25.1 to 158 nM.
Regarding `Cc1cccc(-c2nccc(Nc3ccnc(Nc4ccc(C(=O)OC[C@H]5CCCN5)nc4)n3)n2)n1` [Compound 577, [(2R)-pyrrolidin-2-yl]methyl 5-[[4-[[2-(6-methyl-2-pyridyl)pyrimidin-4-yl]amino]pyrimidin-2-yl]amino]pyridine-2-carboxylate], in assay [1], the pKi was 9.50 to 10.40. The IC50 in assay [2] was 25.1 to 158 nM.
With `Cc1cccc(-c2nccc(Nc3ccnc(Nc4ccc(CN5CCC(C(=O)O[C@H]6CCN(C)C6)CC5)cc4)n3)n2)n1` [Compound 297, [(3S)-1-methylpyrrolidin-3-yl] 1-[[4-[[4-[[2-(6-methyl-2-pyridyl)pyrimidin-4-yl]amino]pyrimidin-2-yl]amino]phenyl]methyl] piperidine-4-carboxylate], the negative logarithm of the Ki (pKi) in assay [1] is 9.50 to 10.40. The IC50 in assay [2] was 200 to 1260 nM.
Turning to `Cc1cccc(-c2nccc(Nc3ccnc(Nc4ccc(Cl)c(CN5CCSCC5)c4)n3)n2)n1` [Compound 350, N2-[4-chloro-3-(thiomorpholinomethyl)phenyl]-N4-[2-(6-methyl-2-pyridyl)pyrimidin-4-yl]pyrimidine-2,4-diamine], in assay [1], the pKi is 8.50 to 9.40. Moreover, in assay [2], the IC50 is 25.1 to 158 nM.
